{"source": "patent US20230255906A1", "about": "“Targeting Serpin B9 in Cancer” (The Brigham and Women`s Hospital, Inc., priority 2020, published 2023)", "data": [{"tested_on": "B16 melanoma cells", "assay": "Caspase-3 activity assay (EnzChek Caspase-3 Assay Kit), caspase-3 induction in tumor cells; also: test concentration or dose not given here", "type": "cell-based, mouse", "settings": "not given", "excerpt": "(§1) The EnzChek® Caspase-3 Assay Kit was used to detect apoptosis by assaying for increases in caspase-3 activities. The basis for the assay was rhodamine 110 bis-(N-CBZ-L-aspartyl-L-glutamyl-L-valyl-L-aspartic acid amide) (Z-DEVD-R110). This substrate is a bisamide derivative of rhodamine 110 (R110) containing DEVD peptides covalently linked to each of R110's amino groups, thereby suppressing the dye's visible absorption and its fluorescence. Upon enzymatic cleavage, the nonfluorescent bisamide substrate is converted in a two-step process first to a fluorescent monoamide and then to an even more fluorescent R110.\n(§2) At least 1×10^6 cells of the lysate were used for each reaction. B16 cells were treated with compounds to induce apoptosis. A negative control was prepared by incubating cells in the absence of compounds. The cells were incubated with compounds for 24 hrs and washed in PBS. Each cell sample or control was resuspended in 50 μL of the 1×cell lysis buffer. Cells were lysed by incubating on ice for 30 minutes, and the lysed cells were centrifuged to pellet the cellular debris. 50 μL of the supernatant was transferred from each sample to individual microplate wells. 50 μL of the 1× cell lysis buffer was used as a no-enzyme control to determine the background fluorescence of the substrate. 50 μL of the 2×substrate working solution was added to each sample and control. The microplate was covered, and the samples were incubated at room temperature for approximately 30 minutes. The fluorescence was measured by a fluorescence microplate reader (excitation/emission ˜496/520 nm) using excitation and emission filters.\n(§3) The ability of this small molecule inhibitor to inhibit intracellular Sb9 was then evaluated. As a marker for cell penetration, the induction of caspase-3 activity in B16 melanoma cells as a surrogate marker for increased GrB activity was measured.\n(§4) The induction of caspase-3 activity in B16 melanoma cells as a surrogate marker for increased GrB activity was also measured for other small molecules (compounds of Formulas (V) and (VI) as described herein).", "values": [{"molecule": "CN(CCN1CCCCC1)C(=O)c1ccc2oc(-c3cccc(F)c3)nc2c1", "note": "[2-(3-fluorophenyl)-N-methyl-N-[2-(1-piperidinyl)ethyl]-1,3-benzoxazole-5-carboxamide]", "Ratio of caspase-3 activity to Formula (III)": 0.1405}, {"molecule": "O=C(NCCCO)c1ccc2oc(-c3ccc(C(F)(F)F)cc3)nc2c1", "note": "[N-(3-hydroxypropyl)-2-[4-(trifluoromethyl)phenyl]-1,3-benzoxazole-5-carboxamide]", "Ratio of caspase-3 activity to Formula (III)": 1.003}, {"molecule": "COc1cccc(-c2nc3ccc(C(=O)NCC(F)(F)F)cc3o2)c1", "note": "[2-(3-methoxyphenyl)-N-(2,2,2-trifluoroethyl)-1,3-benzoxazole-6-carboxamide]", "Ratio of caspase-3 activity to Formula (III)": 0.09526}, {"molecule": "CCOC(=O)CCNC(=O)c1ccc2oc(-c3cccc(F)c3)nc2c1", "note": "[ethyl N-{[2-(3-fluorophenyl)-1,3-benzoxazol-5-yl]carbonyl}-beta-alaninate]", "Ratio of caspase-3 activity to Formula (III)": 0.09329}, {"molecule": "O=C(c1ccc2oc(-c3ccc(C(F)(F)F)cc3)nc2c1)N1CC[C@H](O)C1", "note": "[(3S)-1-({2-[4-(trifluoromethyl)phenyl]-1,3-benzoxazol-5-yl}carbonyl)-3-pyrrolidinol]", "Ratio of caspase-3 activity to Formula (III)": 0.1382}, {"molecule": "CN(Cc1ccncn1)C(=O)c1ccc2oc(-c3ccc(C(F)(F)F)cc3)nc2c1", "note": "[N-methyl-N-(4-pyrimidinylmethyl)-2-[4-(trifluoromethyl)phenyl]-1,3-benzoxazole-5-carboxamide]", "Ratio of caspase-3 activity to Formula (III)": 0.1443}, {"molecule": "CCCc1cc(CN(C)C(=O)c2ccc3nc(-c4cccc(OC)c4)oc3c2)n[nH]1", "note": "[2-(3-methoxyphenyl)-N-methyl-N-[(5-propyl-1H-pyrazol-3-yl)methyl]-1,3-benzoxazole-6-carboxamide]", "Ratio of caspase-3 activity to Formula (III)": 0.1531}, {"molecule": "CCOC(=O)CC1CCCCN1C(=O)c1ccc2nc(-c3cccc(OC)c3)oc2c1", "note": "(centres unmarked) [ethyl (1-{[2-(3-methoxyphenyl)-1,3-benzoxazol-6-yl]carbonyl}-2-piperidinyl)acetate]", "Ratio of caspase-3 activity to Formula (III)": 0.1479}, {"molecule": "CCN(CCN(C)C)C(=O)c1cnc2c(c1)nc(-c1ccccc1Cl)n2C", "note": "[2-(2-chlorophenyl)-N-[2-(dimethylamino)ethyl]-N-ethyl-3-methyl-3H-imidazo[4,5-b]pyridine-6-carboxamide]", "Ratio of caspase-3 activity to Formula (III)": 1.106}, {"molecule": "CCc1ccc(CN(C)C(=O)c2ccc3oc(-c4cccc(F)c4)nc3c2)nc1", "note": "[N-[(5-ethyl-2-pyridinyl)methyl]-2-(3-fluorophenyl)-N-methyl-1,3-benzoxazole-5-carboxamide]", "Ratio of caspase-3 activity to Formula (III)": 0.1324}, {"molecule": "CCOC(=O)C1CCCN(C(=O)c2ccc3nc(-c4cccc(OC)c4)oc3c2)C1", "note": "(centres unmarked) [ethyl 1-{[2-(3-methoxyphenyl)-1,3-benzoxazol-6-yl]carbonyl}-3-piperidinecarboxylate]", "Ratio of caspase-3 activity to Formula (III)": 0.1363}, {"molecule": "CO[C@H]1CN(C)C[C@@H]1NC(=O)c1ccc2oc(-c3cccc(F)c3)nc2c1", "note": "(relative stereo) [2-(3-fluorophenyl)-N-[(3S*,4S*)-4-methoxy-1-methylpyrrolidin-3-yl]-1,3-benzoxazole-5-carboxamide]", "Ratio of caspase-3 activity to Formula (III)": 0.08936}, {"molecule": "CC(C)NC(=O)c1ccc2oc(-c3ccc(C(F)(F)F)cc3)nc2c1", "note": "[N-isopropyl-2-[4-(trifluoromethyl)phenyl]-1,3-benzoxazole-5-carboxamide]", "Ratio of caspase-3 activity to Formula (III)": 0.2847}, {"molecule": "COc1cccc(-c2nc3ccc(C(=O)N4CCS(=O)(=O)CC4)cc3o2)c1", "note": "[6-[(1,1-dioxidothiomorpholin-4-yl)carbonyl]-2-(3-methoxyphenyl)-1,3-benzoxazole]", "Ratio of caspase-3 activity to Formula (III)": 0.7081}, {"molecule": "O=C(NCCc1cn[nH]c1)c1ccc2oc(-c3cccc(F)c3)nc2c1", "note": "[2-(3-fluorophenyl)-N-[2-(1H-pyrazol-4-yl)ethyl]-1,3-benzoxazole-5-carboxamide]", "Ratio of caspase-3 activity to Formula (III)": 0.4925}, {"molecule": "O=C(NCCO)c1ccc2oc(-c3ccc(C(F)(F)F)cc3)nc2c1", "note": "[N-(2-hydroxyethyl)-2-[4-(trifluoromethyl)phenyl]-1,3-benzoxazole-5-carboxamide]", "Ratio of caspase-3 activity to Formula (III)": 0.3843}, {"molecule": "Cn1cc(CCNC(=O)c2ccc3oc(-c4cccc(F)c4)nc3c2)cn1", "note": "[2-(3-fluorophenyl)-N-[2-(1-methyl-1H-pyrazol-4-yl)ethyl]-1,3-benzoxazole-5-carboxamide]", "Ratio of caspase-3 activity to Formula (III)": 0.4475}, {"molecule": "COC(=O)CCCNC(=O)c1ccc2nc(-c3cccc(OC)c3)oc2c1", "note": "[methyl 4-({[2-(3-methoxyphenyl)-1,3-benzoxazol-6-yl]carbonyl}amino)butanoate]", "Ratio of caspase-3 activity to Formula (III)": 0.3858}, {"molecule": "COc1cccc(-c2nc3ccc(C(=O)N4CCN(CCC(N)=O)CC4)cc3o2)c1", "note": "[3-(4-{[2-(3-methoxyphenyl)-1,3-benzoxazol-6-yl]carbonyl}-1-piperazinyl)propanamide]", "Ratio of caspase-3 activity to Formula (III)": 1.077}, {"molecule": "COc1cccc(-c2nc3ccc(C(=O)N(C)Cc4cc(C)on4)cc3o2)c1", "note": "[2-(3-methoxyphenyl)-N-methyl-N-[(5-methylisoxazol-3-yl)methyl]-1,3-benzoxazole-6-carboxamide]", "Ratio of caspase-3 activity to Formula (III)": 0.2402}, {"molecule": "COc1cccc(-c2nc3ccc(C(=O)NCC4CCCO4)cc3o2)c1", "note": "(centres unmarked) [2-(3-methoxyphenyl)-N-(tetrahydro-2-furanylmethyl)-1,3-benzoxazole-6-carboxamide]", "Ratio of caspase-3 activity to Formula (III)": 0.4304}]}, {"tested_on": "B16 melanoma cells", "assay": "Caspase-3 activity assay (EnzChek Caspase-3 Assay Kit), caspase-3 induction in tumor cells", "type": "cell-based, mouse", "settings": "relative to compound of Formula (III)", "excerpt": "as §1, §2, §3, §4", "units": {"Caspase-3 induction, Normalized to Formula (III) (%)": "%"}, "values": [{"molecule": "COc1cc(C(=O)NCC2CCOCC2)ccc1OC(C)C", "note": "[3-methoxy-N-[(oxan-4-yl)methyl]-4-(propan-2-yloxy)benzamide]", "Caspase-3 induction, Normalized to Formula (III) (%)": "−66.2788"}, {"molecule": "COCCCNC(=O)c1cc2c(cc1O)OCO2", "note": "[6-hydroxy-N-(3-methoxypropyl)-2H-1,3-benzodioxole-5-carboxamide]", "Caspase-3 induction, Normalized to Formula (III) (%)": "−41.8942"}, {"molecule": "CCN(C)C(=O)c1ccc2oc(=O)[nH]c2c1", "note": "[N-ethyl-N-methyl-2-oxo-2,3-dihydro-1,3-benzoxazole-5-carboxamide]", "Caspase-3 induction, Normalized to Formula (III) (%)": "−21.7056"}, {"molecule": "COCCCNC(=O)c1cccc2nc(N(C)C)oc12", "note": "[2-(dimethylamino)-N-(3-methoxypropyl)-1,3-benzoxazole-7-carboxamide]", "Caspase-3 induction, Normalized to Formula (III) (%)": "−39.581"}, {"molecule": "O=C(Cc1ccc2ocnc2c1)NCc1ccccc1", "note": "[2-(1,3-benzoxazol-5-yl)-N-benzylacetamide]", "Caspase-3 induction, Normalized to Formula (III) (%)": "−34.4942"}, {"molecule": "CN(C)c1nc2cccc(C(=O)NCc3ccccc3)c2o1", "note": "[N-benzyl-2-(dimethylamino)-1,3-benzoxazole-7-carboxamide]", "Caspase-3 induction, Normalized to Formula (III) (%)": "−26.8974"}, {"molecule": "COc1cc(C(=O)NCC(C)C)cc(OC)c1O", "note": "[4-hydroxy-3,5-dimethoxy-N-(2-methylpropyl)benzamide]", "Caspase-3 induction, Normalized to Formula (III) (%)": "−25.2896"}, {"molecule": "COCCCNC(=O)Cc1ccc2ocnc2c1", "note": "[2-(1,3-benzoxazol-5-yl)-N-(3-methoxypropyl)acetamide]", "Caspase-3 induction, Normalized to Formula (III) (%)": "−31.2011"}, {"molecule": "O=C(c1ccc2nc(C3CC3)oc2c1)N1CCCC1", "note": "[2-cyclopropyl-6-(pyrrolidine-1-carbonyl)-1,3-benzoxazole]", "Caspase-3 induction, Normalized to Formula (III) (%)": "−27.4144"}, {"molecule": "O=C(Cc1ccc2ocnc2c1)NC1CCCC1", "note": "[2-(1,3-benzoxazol-5-yl)-N-cyclopentylacetamide]", "Caspase-3 induction, Normalized to Formula (III) (%)": "−4.02"}, {"molecule": "CN(C)c1nc2cccc(C(=O)N3CCCC3)c2o1", "note": "[N,N-dimethyl-7-(pyrrolidine-1-carbonyl)-1,3-benzoxazol-2-amine]", "Caspase-3 induction, Normalized to Formula (III) (%)": "−21.0312"}, {"molecule": "CCN(C)C(=O)c1ccc2oc(C)nc2c1", "note": "[N-ethyl-N,2-dimethyl-1,3-benzoxazole-5-carboxamide]", "Caspase-3 induction, Normalized to Formula (III) (%)": "−65.6678"}, {"molecule": "CCN(C)C(=O)c1cccc2nc(N(C)C)oc12", "note": "[2-(dimethylamino)-N-ethyl-N-methyl-1,3-benzoxazole-7-carboxamide]", "Caspase-3 induction, Normalized to Formula (III) (%)": "−30.9946"}, {"molecule": "CCOc1ccc(C(=O)NCCN(C)C)cc1O", "note": "[N-[2-(dimethylamino)ethyl]-4-ethoxy-3-hydroxybenzamide]", "Caspase-3 induction, Normalized to Formula (III) (%)": "−38.5237"}, {"molecule": "O=C(NC1CCCC1)c1ccc2nc(C3CC3)oc2c1", "note": "[N-cyclopentyl-2-cyclopropyl-1,3-benzoxazole-6-carboxamide]", "Caspase-3 induction, Normalized to Formula (III) (%)": "−21.5068"}, {"molecule": "CCN(C)C(=O)c1cc(OC)c(OC)cc1Br", "note": "[2-bromo-N-ethyl-4,5-dimethoxy-N-methylbenzamide]", "Caspase-3 induction, Normalized to Formula (III) (%)": "−74.0106"}, {"molecule": "COc1cc(C(=O)NCC2CCOCC2)cc(OC)c1O", "note": "[4-hydroxy-3,5-dimethoxy-N-[(oxan-4-yl)methyl]benzamide]", "Caspase-3 induction, Normalized to Formula (III) (%)": "−78.7609"}, {"molecule": "CCOc1ccc(C(=O)NCC2CCOC2)cc1O", "note": "(centres unmarked) [4-ethoxy-3-hydroxy-N-[(oxolan-3-yl)methyl]benzamide]", "Caspase-3 induction, Normalized to Formula (III) (%)": "−24.9053"}, {"molecule": "CCN(C)C(=O)c1ccc2nc(-c3ccccc3)oc2c1", "note": "[N-ethyl-N-methyl-2-phenyl-1,3-benzoxazole-6-carboxamide]", "Caspase-3 induction, Normalized to Formula (III) (%)": "−76.883"}, {"molecule": "CCOc1ccc(C(=O)NCC2CCOCC2)cc1O", "note": "[4-ethoxy-3-hydroxy-N-[(oxan-4-yl)methyl]benzamide]", "Caspase-3 induction, Normalized to Formula (III) (%)": "−30.8469"}]}]}
